Experiments:
[1] = molecular target: T1, Cysteinyl leukotriene receptor 1 (Homo sapiens, UniProt Q9Y271); type: cell membranes, CHO-K1, Membrane; conditions: cho-k1; further: in other assays of this panel Not Active means under 50% inhibition at 10 µM
T1 sequence (Q9Y271 whole entry): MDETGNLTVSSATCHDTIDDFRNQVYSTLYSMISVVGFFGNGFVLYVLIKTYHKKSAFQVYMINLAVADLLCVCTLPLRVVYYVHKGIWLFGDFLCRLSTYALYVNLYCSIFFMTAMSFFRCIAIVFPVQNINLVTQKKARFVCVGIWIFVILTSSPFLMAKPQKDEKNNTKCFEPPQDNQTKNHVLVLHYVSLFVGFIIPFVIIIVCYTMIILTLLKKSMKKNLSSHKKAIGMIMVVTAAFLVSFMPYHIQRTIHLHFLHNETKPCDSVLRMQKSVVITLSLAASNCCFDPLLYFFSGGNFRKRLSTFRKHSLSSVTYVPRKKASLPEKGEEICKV

D(4) dopamine receptor = molecular target: T2, D(4) dopamine receptor (Homo sapiens, UniProt P21917); test: DRUGMATRIX: Dopamine D4.2 radioligand binding (ligand: [3H] Spiperone); type: cell membranes, CHO-K1, Membrane; conditions: cho-k1; Not Active = under 50% inhibition at 10 µM
T2 sequence (P21917 whole entry): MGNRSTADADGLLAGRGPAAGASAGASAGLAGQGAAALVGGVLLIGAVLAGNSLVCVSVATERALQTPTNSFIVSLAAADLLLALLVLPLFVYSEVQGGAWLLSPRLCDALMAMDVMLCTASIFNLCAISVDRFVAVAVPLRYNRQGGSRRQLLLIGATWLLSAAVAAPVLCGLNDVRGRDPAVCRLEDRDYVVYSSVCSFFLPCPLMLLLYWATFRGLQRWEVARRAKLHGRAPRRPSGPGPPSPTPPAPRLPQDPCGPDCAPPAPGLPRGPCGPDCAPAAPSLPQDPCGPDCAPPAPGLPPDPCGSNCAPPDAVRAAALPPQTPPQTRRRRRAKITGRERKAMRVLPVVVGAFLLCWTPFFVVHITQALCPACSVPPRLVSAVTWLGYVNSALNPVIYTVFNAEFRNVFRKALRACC

Cathepsin G = molecular target: T3, Cathepsin G (Homo sapiens, UniProt P08311); type: tissue-based; conditions: neutrophil;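 further: inhibition of Cathepsin G enzyme activity, tested on an AMC-conjugated peptide substrate; in other assays of this panel Not Active means under 50% inhibition at 10 µM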
T3 sequence (P08311 whole entry): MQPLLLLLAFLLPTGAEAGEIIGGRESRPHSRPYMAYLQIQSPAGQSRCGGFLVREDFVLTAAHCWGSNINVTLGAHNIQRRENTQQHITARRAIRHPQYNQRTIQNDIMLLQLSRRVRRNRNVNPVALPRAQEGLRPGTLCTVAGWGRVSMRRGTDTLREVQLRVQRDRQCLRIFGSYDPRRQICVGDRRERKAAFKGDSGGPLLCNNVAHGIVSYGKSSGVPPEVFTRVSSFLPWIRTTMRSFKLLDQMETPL

[2] = molecular target: Epidermal growth factor receptor (Homo sapiens, UniProt P00533); test: DRUGMATRIX: Protein Tyrosine Kinase, EGF Receptor enzyme inhibition (substrate: Poly(Glu:Tyr)); type: cell-based, Insect cells; conditions: insect cells; Not Active = under 50% inhibition at 10 µM
Epidermal growth factor receptor, sequence (P00533 whole entry): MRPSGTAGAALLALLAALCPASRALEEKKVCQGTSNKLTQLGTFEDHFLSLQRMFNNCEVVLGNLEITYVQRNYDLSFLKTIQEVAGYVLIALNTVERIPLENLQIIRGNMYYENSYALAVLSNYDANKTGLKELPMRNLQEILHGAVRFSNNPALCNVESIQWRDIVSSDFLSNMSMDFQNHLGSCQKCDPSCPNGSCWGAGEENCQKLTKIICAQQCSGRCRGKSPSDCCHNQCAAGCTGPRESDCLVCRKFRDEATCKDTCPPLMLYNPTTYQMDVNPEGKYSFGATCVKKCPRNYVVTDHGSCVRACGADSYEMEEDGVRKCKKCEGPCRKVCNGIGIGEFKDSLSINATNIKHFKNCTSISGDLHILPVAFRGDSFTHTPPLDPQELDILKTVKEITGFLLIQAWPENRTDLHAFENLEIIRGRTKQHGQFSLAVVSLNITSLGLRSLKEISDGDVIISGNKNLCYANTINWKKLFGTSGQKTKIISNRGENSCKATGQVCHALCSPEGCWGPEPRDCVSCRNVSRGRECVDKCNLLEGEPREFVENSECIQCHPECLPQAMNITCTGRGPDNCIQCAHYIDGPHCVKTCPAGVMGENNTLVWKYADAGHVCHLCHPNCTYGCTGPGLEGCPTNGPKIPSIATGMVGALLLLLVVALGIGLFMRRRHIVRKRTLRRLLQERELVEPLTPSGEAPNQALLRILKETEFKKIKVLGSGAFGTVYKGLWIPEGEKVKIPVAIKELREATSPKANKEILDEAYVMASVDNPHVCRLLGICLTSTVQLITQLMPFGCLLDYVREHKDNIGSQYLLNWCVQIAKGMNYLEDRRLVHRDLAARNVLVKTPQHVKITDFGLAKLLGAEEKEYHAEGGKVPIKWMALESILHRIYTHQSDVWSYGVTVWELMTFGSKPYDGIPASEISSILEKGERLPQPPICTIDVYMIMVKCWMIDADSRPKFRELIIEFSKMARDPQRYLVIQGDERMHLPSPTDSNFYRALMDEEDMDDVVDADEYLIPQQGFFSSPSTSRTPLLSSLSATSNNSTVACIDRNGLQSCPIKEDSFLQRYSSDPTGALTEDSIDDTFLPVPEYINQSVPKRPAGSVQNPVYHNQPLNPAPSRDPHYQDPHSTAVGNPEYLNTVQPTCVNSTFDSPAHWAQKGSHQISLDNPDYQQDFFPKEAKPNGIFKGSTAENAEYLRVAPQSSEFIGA

[3] = molecular target: 5-hydroxytryptamine receptor 1B (Rattus norvegicus, UniProt P28564); type: cell membranes, Wistar, Cerebral cortex, Membrane; further: in other assays of this panel Not Active means under 50% inhibition at 10 µM
5-hydroxytryptamine receptor 1B, sequence (P28564 whole entry): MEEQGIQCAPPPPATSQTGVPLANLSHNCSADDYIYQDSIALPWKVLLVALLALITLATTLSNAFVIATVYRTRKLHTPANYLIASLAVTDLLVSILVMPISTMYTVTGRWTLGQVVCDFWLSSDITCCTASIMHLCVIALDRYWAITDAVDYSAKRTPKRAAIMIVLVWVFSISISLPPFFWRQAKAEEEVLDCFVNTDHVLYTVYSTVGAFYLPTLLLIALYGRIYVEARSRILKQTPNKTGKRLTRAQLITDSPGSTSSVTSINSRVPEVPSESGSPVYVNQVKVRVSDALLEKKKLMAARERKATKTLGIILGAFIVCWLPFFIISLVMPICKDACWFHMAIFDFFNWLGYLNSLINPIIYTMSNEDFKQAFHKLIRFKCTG

[4] = DRUGMATRIX: Purinergic P2X radioligand binding (ligand: [3H] alpha, beta-Methylene-ATP); type: cell membranes, Oryctolagus cuniculus, New Zealand albino, Urinary bladder, Membrane; conditions: Not Active = under 50% inhibition at 10 µM
Melanocortin receptor 5 = Melanocortin receptor 5 (Homo sapiens, UniProt P33032); type: cell membranes, HEK293, Membrane; conditions: hek293; further: in other assays of this panel Not Active means under 50% inhibition at 10 µM
Melanocortin receptor 5, sequence (P33032 whole entry): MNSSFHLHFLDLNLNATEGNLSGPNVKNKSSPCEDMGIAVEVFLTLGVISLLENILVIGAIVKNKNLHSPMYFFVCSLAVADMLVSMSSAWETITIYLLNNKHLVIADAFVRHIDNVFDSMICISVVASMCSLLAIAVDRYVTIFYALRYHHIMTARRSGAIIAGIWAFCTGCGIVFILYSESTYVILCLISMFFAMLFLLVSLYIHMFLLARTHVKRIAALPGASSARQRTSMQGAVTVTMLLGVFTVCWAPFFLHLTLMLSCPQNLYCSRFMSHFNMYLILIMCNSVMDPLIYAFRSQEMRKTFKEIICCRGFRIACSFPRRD

Melanocortin receptor 4 = Melanocortin receptor 4 (Homo sapiens, UniProt P32245); type: cell membranes, Membrane; conditions: hek293; further: in other assays of this panel Not Active means under 50% inhibition at 10 µM
Melanocortin receptor 4, sequence (P32245 whole entry): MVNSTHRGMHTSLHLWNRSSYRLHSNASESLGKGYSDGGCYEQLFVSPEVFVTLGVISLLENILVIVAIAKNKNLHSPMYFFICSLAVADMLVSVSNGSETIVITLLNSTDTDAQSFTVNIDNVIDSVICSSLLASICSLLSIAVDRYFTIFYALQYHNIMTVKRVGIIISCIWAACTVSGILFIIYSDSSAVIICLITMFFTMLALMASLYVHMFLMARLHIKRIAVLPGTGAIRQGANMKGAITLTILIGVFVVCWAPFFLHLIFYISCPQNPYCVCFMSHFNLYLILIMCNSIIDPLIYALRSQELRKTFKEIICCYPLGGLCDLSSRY

[5] = molecular target: T4, 5-hydroxytryptamine receptor 2C (Homo sapiens, UniProt P28335); test: DRUGMATRIX: Serotonin (5-Hydroxytryptamine) 5-HT2C radioligand binding (ligand: [3H] Mesulergine); type: cell membranes, CHO-K1, Membrane; conditions: cho-k1; Not Active = under 50% inhibition at 10 µM
T4 sequence (P28335 whole entry): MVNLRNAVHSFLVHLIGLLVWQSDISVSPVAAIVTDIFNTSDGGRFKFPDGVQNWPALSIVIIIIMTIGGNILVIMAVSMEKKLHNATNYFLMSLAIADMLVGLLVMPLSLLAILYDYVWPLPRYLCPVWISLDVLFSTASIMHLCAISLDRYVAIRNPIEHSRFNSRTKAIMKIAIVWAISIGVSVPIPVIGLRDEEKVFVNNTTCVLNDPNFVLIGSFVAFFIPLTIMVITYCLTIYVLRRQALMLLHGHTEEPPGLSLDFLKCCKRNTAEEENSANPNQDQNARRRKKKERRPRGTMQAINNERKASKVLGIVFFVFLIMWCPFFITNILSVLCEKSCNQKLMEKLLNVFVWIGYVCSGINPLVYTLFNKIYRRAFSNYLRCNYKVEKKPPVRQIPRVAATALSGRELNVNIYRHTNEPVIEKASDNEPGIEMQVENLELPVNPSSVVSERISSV

Mu-type opioid receptor = Mu-type opioid receptor (Homo sapiens, UniProt P35372); test: DRUGMATRIX: Opiate mu (OP3, MOP) radioligand binding (ligand: [3H] Diprenorphine); type: cell membranes, CHO-K1, Membrane; conditions: cho-k1; Not Active = under 50% inhibition at 10 µM
Mu-type opioid receptor, sequence (P35372 whole entry): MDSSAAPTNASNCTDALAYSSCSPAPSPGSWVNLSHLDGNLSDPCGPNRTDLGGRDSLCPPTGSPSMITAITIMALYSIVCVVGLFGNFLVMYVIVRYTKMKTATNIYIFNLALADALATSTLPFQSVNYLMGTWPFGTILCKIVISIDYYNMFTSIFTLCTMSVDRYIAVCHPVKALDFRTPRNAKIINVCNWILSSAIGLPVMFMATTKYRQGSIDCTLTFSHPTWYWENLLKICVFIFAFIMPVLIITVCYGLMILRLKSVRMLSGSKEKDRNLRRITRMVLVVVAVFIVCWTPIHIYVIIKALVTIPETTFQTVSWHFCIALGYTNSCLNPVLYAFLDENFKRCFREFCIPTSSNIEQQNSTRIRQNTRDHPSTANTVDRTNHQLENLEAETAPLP

[6] = DRUGMATRIX: Sigma2 radioligand binding (ligand: [3H] Ifenprodil); type: cell membranes, Rattus norvegicus, Wistar, Brain, Membrane; conditions: Not Active = under 50% inhibition at 10 µM
[7] = DRUGMATRIX: beta-Lactamase enzyme inhibition (substrate: Nitrocefin); parameters: species or system Bacillus cereus; conditions: Not Active = under 50% inhibition at 10 µM
Caspase-1 = molecular target: T5, Caspase-1 (Homo sapiens, UniProt P29466); parameters: species or system Escherichia coli
T5 sequence (P29466 whole entry): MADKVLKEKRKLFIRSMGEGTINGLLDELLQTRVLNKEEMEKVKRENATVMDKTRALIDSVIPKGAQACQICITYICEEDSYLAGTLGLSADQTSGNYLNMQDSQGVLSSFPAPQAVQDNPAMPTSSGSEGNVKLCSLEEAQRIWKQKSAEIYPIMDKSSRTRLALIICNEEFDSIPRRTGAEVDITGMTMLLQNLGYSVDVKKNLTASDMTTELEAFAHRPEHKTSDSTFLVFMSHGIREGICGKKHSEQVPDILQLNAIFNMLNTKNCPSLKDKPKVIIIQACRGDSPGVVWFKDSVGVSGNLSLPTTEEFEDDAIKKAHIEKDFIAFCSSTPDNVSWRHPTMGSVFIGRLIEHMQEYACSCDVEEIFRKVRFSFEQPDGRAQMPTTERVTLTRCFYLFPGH

[8] = molecular target: Tyrosine-protein kinase Fyn (Homo sapiens, UniProt P06241); test: biochemical; type: cell-based, Insect cells; conditions: insect cells
Tyrosine-protein kinase Fyn, sequence (P06241 whole entry): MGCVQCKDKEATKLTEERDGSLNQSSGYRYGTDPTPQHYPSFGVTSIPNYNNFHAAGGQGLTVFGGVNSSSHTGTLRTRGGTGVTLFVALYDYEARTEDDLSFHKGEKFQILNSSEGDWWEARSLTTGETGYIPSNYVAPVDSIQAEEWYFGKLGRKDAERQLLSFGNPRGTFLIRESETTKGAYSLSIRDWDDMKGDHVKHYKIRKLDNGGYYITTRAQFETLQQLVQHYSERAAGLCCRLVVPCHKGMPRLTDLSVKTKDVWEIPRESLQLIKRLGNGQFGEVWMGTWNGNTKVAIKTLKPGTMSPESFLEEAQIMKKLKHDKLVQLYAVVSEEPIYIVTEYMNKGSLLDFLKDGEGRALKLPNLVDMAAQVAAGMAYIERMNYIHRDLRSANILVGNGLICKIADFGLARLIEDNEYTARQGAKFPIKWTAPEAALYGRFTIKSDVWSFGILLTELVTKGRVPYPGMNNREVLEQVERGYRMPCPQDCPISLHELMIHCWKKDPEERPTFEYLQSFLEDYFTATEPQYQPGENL

[9] = molecular target: Beta-1 adrenergic receptor (Homo sapiens, UniProt P08588); test: DRUGMATRIX: Adrenergic beta1 radioligand binding (ligand: [125I] Cyanopindolol); type: cell membranes, CHO-K1, Membrane; conditions: cho-k1; Not Active = under 50% inhibition at 10 µM
Beta-1 adrenergic receptor, sequence (P08588 whole entry): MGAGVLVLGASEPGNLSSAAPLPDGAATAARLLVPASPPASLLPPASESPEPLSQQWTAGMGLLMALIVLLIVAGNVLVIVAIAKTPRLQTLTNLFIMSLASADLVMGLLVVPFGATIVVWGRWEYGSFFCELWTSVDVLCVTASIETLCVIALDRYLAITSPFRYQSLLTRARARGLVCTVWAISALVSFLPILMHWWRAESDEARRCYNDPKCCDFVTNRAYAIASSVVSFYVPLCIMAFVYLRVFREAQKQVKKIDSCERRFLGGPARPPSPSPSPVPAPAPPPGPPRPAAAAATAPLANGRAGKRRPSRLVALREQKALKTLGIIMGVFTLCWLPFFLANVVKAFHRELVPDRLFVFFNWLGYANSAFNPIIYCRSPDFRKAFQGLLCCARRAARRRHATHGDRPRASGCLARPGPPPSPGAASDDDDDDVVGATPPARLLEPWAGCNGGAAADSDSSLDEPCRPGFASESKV

[10] = DRUGMATRIX: Leukotriene, BLT (LTB4) radioligand binding (ligand: [3H]LTB4); type: cell membranes, Membrane; conditions: u-937; Not Active = under 50% inhibition at 10 µM

Cn1cnc([N+](=O)[O-])c1Sc1ncnc2nc[nH]c12 [AZATHIOPRINE]
Not Active: IC50 [1] | IC50 (D(4) dopamine receptor) | IC50 (Cathepsin G) | IC50 [2] | IC50 [3] | IC50 [4] | Ki [4] | IC50 (Melanocortin receptor 5) | IC50 (Melanocortin receptor 4) | IC50 [5] | IC50 (Mu-type opioid receptor) | IC50 [6] | Ki [6] | IC50 [7] | Ki [7] | IC50 (Caspase-1) | IC50 [8] | IC50 [9] | IC50 [10] | Ki [10]

CC(/C=C1\SC(=S)N(CC(=O)O)C1=O)=C\c1ccccc1
Not Active: IC50 [1] | IC50 (D(4) dopamine receptor) | IC50 (Cathepsin G) | IC50 [2] | IC50 [3] | IC50 [4] | Ki [4] | IC50 (Melanocortin receptor 5) | IC50 (Melanocortin receptor 4) | IC50 [5] | IC50 (Mu-type opioid receptor) | IC50 [6] | Ki [6] | IC50 [7] | Ki [7] | IC50 (Caspase-1) | IC50 [8] | IC50 [9] | IC50 [10] | Ki [10]

CC1(C)[C@@H](O[C@H]2O[C@H](C(=O)O)[C@@H](O)[C@H](O)[C@H]2O[C@@H]2O[C@H](C(=O)O)[C@@H](O)[C@H](O)[C@H]2O)CC[C@]2(C)[C@H]3C(=O)C=C4[C@@H]5C[C@@](C)(C(=O)O)CC[C@]5(C)CC[C@@]4(C)[C@]3(C)CC[C@@H]12 [GLYCYRRHIZIN]
Not Active: IC50 [1] | IC50 (D(4) dopamine receptor) | IC50 (Cathepsin G) | IC50 [2] | IC50 [3] | IC50 [4] | Ki [4] | IC50 (Melanocortin receptor 5) | IC50 (Melanocortin receptor 4) | IC50 [5] | IC50 (Mu-type opioid receptor) | IC50 [6] | Ki [6] | IC50 [7] | Ki [7] | IC50 (Caspase-1) | IC50 [8] | IC50 [9] | IC50 [10] | Ki [10]

NCC[C@H](O)C(=O)N[C@@H]1C[C@H](N)[C@@H](O[C@H]2O[C@H](CN)[C@@H](O)[C@H](O)[C@H]2O)[C@H](O)[C@H]1O[C@H]1O[C@H](CO)[C@@H](O)[C@H](N)[C@H]1O [AMIKACIN]
Not Active: IC50 [1] | IC50 (D(4) dopamine receptor) | IC50 (Cathepsin G) | IC50 [2] | IC50 [3] | IC50 [4] | Ki [4] | IC50 (Melanocortin receptor 5) | IC50 (Melanocortin receptor 4) | IC50 [5] | IC50 (Mu-type opioid receptor) | IC50 [6] | Ki [6] | IC50 [7] | Ki [7] | IC50 (Caspase-1) | IC50 [8] | IC50 [9] | IC50 [10] | Ki [10]

Cc1[nH]cnc1CN1CCc2c(c3ccccc3n2C)C1=O [ALOSETRON]
Not Active: IC50 [1] | IC50 (D(4) dopamine receptor) | IC50 (Cathepsin G) | IC50 [2] | IC50 [3] | IC50 [4] | Ki [4] | IC50 (Melanocortin receptor 5) | IC50 (Melanocortin receptor 4) | IC50 [5] | IC50 (Mu-type opioid receptor) | IC50 [6] | Ki [6] | IC50 [7] | Ki [7] | IC50 (Caspase-1) | IC50 [8] | IC50 [9] | IC50 [10] | Ki [10]

— ChEMBL document CHEMBL1909046, “DrugMatrix in vitro pharmacology data”
